Non-standard residues stand in square brackets, D forms with d. Residues, ends and D or L forms follow the SMILES beside them. *: point of attachment. Hyp = O=C(O)[C@@H]1C[C@@H](O)CN1; Boc = CC(C)(C)OC(=O)*
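Note: amino acid uptake through Gap1 in nitrogen-starved wild-type yeast cells, measured after 60 s and expressed relative to L-citrulline.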

This assay has as its target T1, General amino-acid permease GAP1 (Saccharomyces cerevisiae) (UniProt P19145).
T1 sequence (whole entry): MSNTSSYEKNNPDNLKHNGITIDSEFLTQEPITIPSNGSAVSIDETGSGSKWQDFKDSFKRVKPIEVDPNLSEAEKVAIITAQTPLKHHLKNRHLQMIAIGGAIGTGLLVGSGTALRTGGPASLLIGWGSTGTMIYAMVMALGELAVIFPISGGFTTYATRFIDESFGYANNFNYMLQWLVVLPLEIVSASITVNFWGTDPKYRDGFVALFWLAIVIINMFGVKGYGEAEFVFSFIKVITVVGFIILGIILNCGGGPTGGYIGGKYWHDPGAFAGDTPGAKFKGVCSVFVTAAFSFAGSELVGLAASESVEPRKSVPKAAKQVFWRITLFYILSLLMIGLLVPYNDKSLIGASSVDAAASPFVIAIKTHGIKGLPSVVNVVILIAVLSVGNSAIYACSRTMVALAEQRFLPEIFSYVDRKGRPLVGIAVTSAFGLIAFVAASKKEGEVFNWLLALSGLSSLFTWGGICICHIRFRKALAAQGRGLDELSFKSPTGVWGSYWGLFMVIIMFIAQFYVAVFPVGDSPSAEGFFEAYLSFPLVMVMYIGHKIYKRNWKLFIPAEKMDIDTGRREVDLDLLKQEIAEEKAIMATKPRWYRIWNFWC
The settings on record: sigma1278b, at 5 mM.
Description: Inhibition of nitrogen-starved wild type sigma1278b yeast Gap1-mediated amino acid uptake at 5 mM after 60 secs relative to L-citrulline
In the case of `C[C@H](N)C(=O)OC(C)(C)C`, the inhibition – broadly, the share of the control response that was lost under treatment – was < 15%. For `CC[C@H](C)[C@H](NC(=O)[C@H](C)N)C(=O)O` (H-Ala-Ile-OH) the value was 15%. With `NCCCC[C@H](N)C(=O)N[C@@H](Cc1c[nH]c2ccccc12)C(=O)O` (H-Lys-Trp-OH) the figure was < 15%; with `CC(C)(C)OC(=O)NC1(C(=O)O)CCCC1`, < 15%. With `CCOC(=O)C(N)Cc1c[nH]c2ccccc12` (racemic) the figure was < 15%; with `CSCC[C@H](NC(=O)[C@@H](N)Cc1ccc(O)cc1)C(=O)O` (H-Tyr-Met-OH), < 15%.

`N[C@@H](Cc1ccc(O)cc1)C(=O)N[C@@H](CCC(=O)O)C(=O)O` (H-Tyr-Glu-OH): the inhibition is < 15%. With `CC(C)[C@H](N)C(=O)N[C@H](C(=O)O)C(C)C` (H-Val-Val-OH) the figure was 15%. With `CC(C)C[C@H](NC(=O)CN)C(=O)O` (racemic) the figure was 15%; with `CC(C)C[C@H](NC(=O)[C@@H]1C[C@@H](O)CN1)C(=O)O` (H-[Hyp]-Leu-OH), < 15%. For `CC(C)C[C@H](N)C(=O)N[C@@H](Cc1cnc[nH]1)C(=O)O` (H-Leu-His-OH) the value was > 30%; for `NC(=O)CC[C@H](NC(=O)[C@@H](N)CO)C(=O)O` (H-Ser-Gln-OH), < 15%. Regarding `COC(=O)CC[C@H](NC(=O)OC(C)(C)C)C(=O)O`, the inhibition was < 15%.

As for `C[C@@H](NC(=O)CN)C(=O)O` (H-Gly-[dA]-OH), the inhibition is < 15%. For `CC(C)C[C@@H](N)C(=O)N[C@H](Cc1ccc(O)cc1)C(=O)O` the value was < 15%; for `NCCCC[C@H](NC(=O)[C@@H](N)Cc1ccc(O)cc1)C(=O)O` (H-Tyr-Lys-OH), > 30%; for `NCC(=O)N[C@@H](Cc1ccccc1)C(=O)O`, > 30%. For `NCC(=O)NCC(=O)N1CCC[C@H]1C(=O)O` (H-Gly-Gly-Pro-OH) the value was < 15%; for `N[C@@H](CO)Cc1c[nH]c2ccccc12`, < 15%. With `O=C(O)[C@H]1CNCCN1` the figure was < 15%.

As to `CC(C)[C@H](N)C(N)=O`, the inhibition is < 15%. With `N[C@@H](Cc1cnc[nH]1)C(=O)NCC(=O)NCC(=O)O` (H-His-Gly-Gly-OH) the figure was < 15%. For `NC(=O)[C@H](CCC(=O)O)NC(=O)[C@@H]1CCCN1` (H-Pro-Glu-NH2) the value was < 15%. For `N[C@@H](Cc1cnc[nH]1)C(=O)NCC(=O)N[C@@H](Cc1cnc[nH]1)C(=O)O` (H-His-Gly-His-OH), the inhibition is < 15%. Take `CSCC[C@H](NC(=O)[C@H](CC(C)C)NC(=O)CN)C(=O)O` (H-Gly-Leu-Met-OH): the inhibition was < 15%.

With `C[C@@H](NC(=O)[C@@H](N)CCC(=O)O)C(=O)O`, the inhibition is < 15%. With `COC(=O)[C@H](CO)NC(=O)OC(C)(C)C` the figure was < 15%; with `N[C@@H](Cc1cnc[nH]1)C(=O)N[C@@H](CCC(=O)O)C(=O)O` (H-His-Glu-OH), < 15%. For `C[C@H](NC(=O)CN)C(=O)O` (H-Gly-Ala-OH) the value was 15%; for `C[C@H](NC=O)C(=O)O`, > 30%; for `C[C@@H](O)C(NC(=O)CN)C(=O)O` (mixture of isomers), 15%. Take `CC(C)(C)OC(=O)NCC(=O)N1CCC[C@H]1C(=O)N1CCC[C@H]1C(=O)O` (Boc-Gly-Pro-Pro-OH): the inhibition was < 15%. For `NC(=O)[C@@H]1CCCN1` the value was < 15%. For `CC[C@H](C)[C@H](NC(=O)CN)C(=O)O` (H-Gly-Ile-OH) the value was < 15%; for `NC(=O)[C@@H](N)CO`, < 15%; for `CSCC[C@H](NC(=O)[C@@H](N)Cc1c[nH]c2ccccc12)C(=O)O` (H-Trp-Met-OH), < 15%. For the molecule `NCC(=O)NCC(=O)N[C@@H](CO)C(=O)O`, the inhibition was < 15%. For `CSCC[C@H](NC(=O)[C@@H](N)Cc1ccccc1)C(=O)O` (H-Phe-Met-OH), the inhibition is < 15%. With `NCC(=O)N[C@@H](CO)C(=O)NCCS(=O)(=O)O` the figure was < 15%; with `N[C@@H](Cc1ccc(O)cc1)C(=O)N[C@@H](Cc1ccc(O)cc1)C(=O)N[C@@H](Cc1ccc(O)cc1)C(=O)O` (H-Tyr-Tyr-Tyr-OH), < 15%; with `C[C@H](NC(=O)CNC(=O)CN)C(=O)O`, < 15%.

For the molecule `NCC(=O)N[C@@H](Cc1ccccc1)C(N)=O` (H-Gly-Phe-NH2), the inhibition was determined as 15%. With `COC(=O)[C@@H](N)Cc1c[nH]c2ccccc12` the figure was < 15%; with `CSCC[C@H](N)C(=O)N[C@@H](CCC(=O)O)C(=O)O` (H-Met-Glu-OH), < 15%. For `CC(C)C[C@H](NC(=O)[C@@H](N)CC(C)C)C(=O)N[C@@H](Cc1cnc[nH]1)C(=O)O` (H-Leu-Leu-His-OH) the value was < 15%; for `CC(C)CC(NC(=O)C(C)N)C(=O)O` (racemic), 15%; for `CC(NC(=O)CN)C(=O)O` (racemic), 15%. For `CC(=O)NCC(=O)N[C@@H](Cc1cnc[nH]1)C(=O)N[C@@H](CCCCN)C(=O)O` (Ac-Gly-His-Lys-OH) the value was < 15%. On to `CC(C)C[C@H](NC(=O)CN)C(N)=O`, for which the inhibition is < 15%. For `NCC(=O)NCC(=O)O` (H-Gly-Gly-OH) the value was < 15%; for `C[C@H](N)C(=O)NCC(=O)O` (racemic), > 30%. Regarding `N[C@H](CO)Cc1c[nH]c2ccccc12`, the inhibition was < 15%. For `CSCC[C@H](NC(=O)[C@H](Cc1ccc(O)cc1)NC(=O)[C@@H](N)CC(=O)O)C(=O)O` (H-Asp-Tyr-Met-OH) the value was < 15%; for `N[C@@H](CO)C(=O)N[C@@H](CO)C(=O)O` (H-Ser-Ser-OH), < 15%. With `C[C@@H](O)[C@H](NC(=O)[C@H](CCCCN)NC(=O)[C@@H](N)Cc1ccc(O)cc1)C(=O)O` (H-Tyr-Lys-Thr-OH) the figure was < 15%; with `CC(=O)N[C@@H](COC(C)(C)C)C(=O)O`, < 15%. On to `NCC(=O)N[C@@H](CC(=O)O)C(=O)O` (H-Gly-Asp-OH), for which the inhibition is < 15%.

Take `CSCC[C@H](N)C(=O)N[C@@H](CO)C(=O)O` (H-Met-Ser-OH): the inhibition is < 15%.

As for `CC(C)C[C@H](NC(=O)[C@@H](NC(=O)[C@@H](N)[C@@H](C)O)C(C)C)C(=O)O` (H-Thr-Val-Leu-OH), the inhibition is < 15%.

Consider `CC(C)C[C@H](N)C(=O)NCC(=O)NCC(=O)O` (H-Leu-Gly-Gly-OH), for which the inhibition is < 15%. With `CSCC[C@H](N)C(=O)NCC(=O)O` (H-Met-Gly-OH) the figure was < 15%. With `CC[C@H](C)[C@H](N)C(=O)N[C@@H](C)C(=O)N1CCC[C@H]1C(=O)O` (H-Ile-Ala-Pro-OH) the figure was 15%; with `N[C@@H](Cc1c[nH]cn1)C(=O)N[C@@H](Cc1c[nH]cn1)C(=O)O`, 15%; with `N=C(N)NCCC[C@H](NC(=O)[C@@H](N)CC(=O)O)C(=O)O` (H-Asp-Arg-OH), < 15%. With `CC(C)CC(N)C(=O)NC(CC(C)C)C(=O)O` (racemic) the figure was > 30%; with `COC(=O)[C@@H](N)CO`, < 15%; with `CC[C@H](C)[C@H](NC(C)=O)C(=O)O`, < 15%. On to `CC(C)C[C@@H](N)C(=O)NCC(=O)NCC(=O)O` (H-[dL]-Gly-Gly-OH), for which the inhibition was < 15%. As to `NCC(=O)N[C@@H](Cc1cnc[nH]1)C(=O)O` (H-Gly-His-OH), the inhibition is < 15%. With `CC(C)C[C@H](NC(=O)[C@@H](N)CCC(=O)O)C(=O)O` (H-Glu-Leu-OH) the figure was < 15%; with `CC(C)(C)OC(=O)N[C@@H](CCC(=O)O)C(=O)O`, < 15%. In the case of `N[C@@H](CO)C(=O)N[C@@H](Cc1ccc(O)cc1)C(=O)O` (H-Ser-Tyr-OH), the inhibition was < 15%.

Consider `COC(=O)[C@@H](N)CCSC`, for which the inhibition is < 15%. `COC(=O)[C@@H](N)[C@@H](C)O`: the inhibition was < 15%. `CC(=O)N[C@H](C(=O)O)[C@@H](C)OC(C)(C)C`: the inhibition is < 15%. For `CC(C)C[C@H](N)C(=O)N[C@H](C(=O)O)C(C)C` (H-Leu-Val-OH) the value was < 15%; for `CSCC[C@H](N)C(=O)NCC(=O)N[C@@H](CC(=O)O)C(=O)O` (H-Met-Gly-Asp-OH), < 15%; for `N[C@@H](CCC(=O)O)C(=O)N[C@@H](Cc1ccc(O)cc1)C(=O)N[C@@H](CCC(=O)O)C(=O)O` (H-Glu-Tyr-Glu-OH), 15%. For `CC(C)C[C@H](NC(=O)[C@@H](N)CC(C)C)C(=O)N[C@@H](CCC(=O)O)C(=O)O` (H-Leu-Leu-Glu-OH) the value was 15%; for `CC(C)C[C@H](NC(=O)CN)C(=O)N[C@@H](Cc1ccc(O)cc1)C(=O)O` (H-Gly-Leu-Tyr-OH), < 15%. With `N[C@@H](CS)C(=O)NCC(=O)O` the figure was < 15%; with `COC(=O)[C@@H](N)Cc1ccc(O)cc1`, < 15%; with `CC(C)[C@H](NC(=O)CNC(=O)CN)C(=O)O` (H-Gly-Gly-Val-OH), < 15%. `NCCC(N)=O`: the inhibition is < 15%.

Values taken from ChEMBL document CHEMBL1221220, “Transport and signaling via the amino acid binding site of the yeast Gap1 amino acid transceptor” (Nat Chem Biol, 2009).
